Assays:
647V cells = experiment: High throughput proliferation (HTP) assay; format: cell-based; conditions: Homo sapiens, 647-V, high throughput proliferation; read-out: CREBBP HTP IC50
From the text: The following example describes methods and materials relating to a high throughput proliferation (HTP) assay. IC50 values (micromolar) are summarized in Table 1, Table 2, and Table 3 under the column labeled: “CREBBP HTP IC50 (micromolar).”
MATERIALS: 647V cell line, Dulbecco's MEM, penicillin-streptomycin, heat inactivated fetal bovine serum, D-PBS, and CellTiter-Glo were commercially available.
647V adherent cells were maintained in complete growth medium (Dulbecco's MEM supplemented with 15% v/v heat inactivated fetal bovine serum) and cultured at 37° C. under 5% CO2.
METHOD: Measurement of the effect of compound in High Throughput Proliferation (HTP) assays was performed as follows: Exponentially growing 647V cells were plated, in triplicate, in 384-well plates at the appropriate cell density in a final volume of 50 μl. Cells were incubated in the presence of increasing concentrations of compound. Viable cell number was determined at day 7 by addition of 35 μl CellTiter-Glo to each well of the plate, incubated in the dark for 30 minutes, and read on a PerkinElmer EnVision instrument to enumerate the number of cells.

EP300 (P300(1048-1664)) = target: T1, EP300 (P300(1048-1664)) (Homo sapiens, UniProt Q09472); experiment: Biochemical assay for EP300, SAMDI; conditions: EP300, SAMDI; read-out: EP300 Biochemistry IC50
T1 construct: P300(1048-1664)
T1 sequence (Q09472 1048-1664): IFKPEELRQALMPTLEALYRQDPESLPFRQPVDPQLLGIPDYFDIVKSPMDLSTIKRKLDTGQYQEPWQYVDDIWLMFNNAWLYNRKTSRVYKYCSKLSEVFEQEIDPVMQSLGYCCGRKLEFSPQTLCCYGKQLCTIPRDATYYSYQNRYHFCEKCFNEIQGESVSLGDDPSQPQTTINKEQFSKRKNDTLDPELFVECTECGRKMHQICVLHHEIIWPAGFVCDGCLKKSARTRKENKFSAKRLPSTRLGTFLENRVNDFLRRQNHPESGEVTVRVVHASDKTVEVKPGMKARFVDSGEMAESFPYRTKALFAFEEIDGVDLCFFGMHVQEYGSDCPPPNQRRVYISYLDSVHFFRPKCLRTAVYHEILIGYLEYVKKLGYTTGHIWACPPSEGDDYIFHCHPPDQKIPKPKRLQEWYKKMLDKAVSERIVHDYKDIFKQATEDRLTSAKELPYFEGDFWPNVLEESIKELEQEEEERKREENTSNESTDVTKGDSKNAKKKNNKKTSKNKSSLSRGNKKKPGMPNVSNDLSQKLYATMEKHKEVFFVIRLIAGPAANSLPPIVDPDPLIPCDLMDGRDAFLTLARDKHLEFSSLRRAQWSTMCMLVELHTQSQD
From the text: The following example describes materials and methods relating to a biochemical assay for EP300. IC50 values (micromolar (μM)) are summarized in Table 1, Table 2, and Table 3 under the column labeled: “EP300 Biochemistry IC50 (micromolar).”

[1] = test system: H3K18Ac in HB-CLS-2 cells; experiment: H3K18AC in-cell western (ICW) assay; format: cell-based; conditions: H3K18Ac in-cell western; read-out: CREBBP ICW IC50
Procedure, shortened: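 HB-CLS-2 cells seeded 16–24 hours before 2 hr compound treatment at 37° C, 5% CO2, then methanol-fixed. H3K18Ac detected with rabbit monoclonal primary (overnight, 4° C) and 800CW anti-rabbit secondary; DRAQ5 stained DNA. Plates imaged at 700 and 800 nm for integrated intensity; IC50 in μM.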

CREBBP (1084-1701) = target: T2, CREBBP (1084-1701) (Homo sapiens, UniProt Q92793); experiment: Biochemical assay for CREBBP (1084-1701), SAMDI; conditions: SAMDI, read-out: CREBBP Biochemistry IC50
T2 construct: measured in the following biochemical assay using CREBBP (1084-1701); purchased
T2 sequence (Q92793 1084-1701): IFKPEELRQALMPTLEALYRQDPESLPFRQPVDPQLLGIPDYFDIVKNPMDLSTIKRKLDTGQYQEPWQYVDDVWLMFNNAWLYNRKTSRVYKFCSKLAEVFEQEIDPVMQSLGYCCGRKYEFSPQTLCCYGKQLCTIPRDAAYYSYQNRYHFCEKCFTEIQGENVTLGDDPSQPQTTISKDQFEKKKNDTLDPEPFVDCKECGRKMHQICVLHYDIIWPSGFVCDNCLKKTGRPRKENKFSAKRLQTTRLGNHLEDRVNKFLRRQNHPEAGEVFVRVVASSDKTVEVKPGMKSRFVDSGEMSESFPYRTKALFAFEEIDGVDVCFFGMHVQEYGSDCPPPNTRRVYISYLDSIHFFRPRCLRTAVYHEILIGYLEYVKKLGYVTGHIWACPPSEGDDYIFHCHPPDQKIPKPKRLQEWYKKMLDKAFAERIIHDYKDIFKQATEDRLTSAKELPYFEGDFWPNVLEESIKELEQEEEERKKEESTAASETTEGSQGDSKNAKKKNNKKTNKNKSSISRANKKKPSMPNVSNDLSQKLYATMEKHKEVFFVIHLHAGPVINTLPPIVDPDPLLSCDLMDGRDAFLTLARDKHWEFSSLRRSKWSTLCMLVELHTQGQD
Procedure, shortened: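 CREBBP (1084-1701) preincubated with compound 30 min at RT, then substrate mix (biotin-H3 11-25 K14R/K23R peptide, acetyl-CoA) added for 30 min at RT. Reaction stopped with formic acid, neutralised with sodium bicarbonate. Peptide acetylation read by SAMDI mass spectrometry to derive IC50.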

Compound	IC50 (647V cells)	IC50 (EP300 (P300(1048-1664)))	IC50 [1]	IC50 (CREBBP (1084-1701))
CCn1ncc(CN(C)C(=O)c2nc(-c3ccc(OCC(O)CNC)c(Cl)c3)nc3ccc(Cl)cc23)c1C (centres unmarked) [Compound 25]	76 nM	33 nM	210 nM	27 nM
CCn1ncc(CN(C)C(=O)c2nc(-c3cc4nc[nH]c4cc3Cl)nc3ccc(Cl)cc23)c1C [Compound 26]	130 nM	170 nM	210 nM	84 nM
CCn1ncc(CN(C)C(=O)c2nc(-c3ccc(OCC(O)CN4CCCC4)c(Cl)c3)nc3ccc(Cl)cc23)c1C (centres unmarked) [Compound 27]	110 nM	20 nM	220 nM	39 nM
CCn1ncc(CN(C)C(=O)c2nc(-c3cc(C)nc(N)c3)nc3ccc(Cl)cc23)c1C [Compound 28]	180 nM	92 nM	220 nM	29 nM
CCn1ncc(CN(C)C(=O)c2cc(-c3ccc(NCCNC)cn3)nc3ccc(Cl)cc23)c1C [Compound 30]	310 nM	12 nM	230 nM	56 nM
CCn1ncc(CN(C)C(=O)c2nc(-c3ccc(OCCCNC(C)C)c(C)c3)nc3ccc(Cl)cc23)c1C [Compound 31]	130 nM	140 nM	260 nM	28 nM
CCn1ncc(CN(C)C(=O)c2nc(-c3ccc(OCCO)cc3Cl)nc3ccc(Cl)cc23)c1C [Compound 32]	150 nM	330 nM	270 nM	150 nM
CCn1ncc(CN(C)C(=O)c2nc(-c3ccc(OCCCNC)cc3C)nc3ccc(Cl)cc23)c1C [Compound 33]	180 nM	53 nM	270 nM	68 nM
CCn1ncc(CN(C)C(=O)c2nc(-c3cc(Cl)cc(NC(=O)NC)c3)nc3ccc(Cl)cc23)c1C [Compound 34]	200 nM	3.2 nM	270 nM	3.2 nM
CCn1ncc(CN(C)C(=O)c2nc(-c3ccc(OCCNC(C)=O)c(Cl)c3)nc3ccc(Cl)cc23)c1C [Compound 35]	220 nM	180 nM	290 nM	44 nM
CCc1ncc(CN(C)C(=O)c2nc(-c3cccc(Cl)c3)nc3ccc(Cl)cc23)n1C [Compound 37]	290 nM	6.1 nM	300 nM	3.4 nM
CCn1ncc(CN(C)C(=O)c2nc(-c3ccc(O[C@@H]4CNC[C@H]4O)cc3Cl)nc3ccc(Cl)cc23)c1C [Compound 38]	230 nM	12 nM	330 nM	34 nM
CCn1ncc(CN(C)C(=O)c2nc(-c3ccc4[nH]c(C)nc4c3)nc3ccc(Cl)cc23)c1C [Compound 39]	250 nM	680 nM	340 nM	650 nM
CCn1ncc(CN(C)C(=O)c2nc(-c3ccc(OCCN4CCCC4)cc3Cl)nc3ccc(Cl)cc23)c1C [Compound 40]	220 nM	130 nM	350 nM	110 nM
CCn1ncc(CN(C)C(=O)c2nc(-c3ccc(OCCO)c(Cl)c3)nc3ccc(Cl)cc23)c1C [Compound 41]	160 nM	250 nM	370 nM	62 nM
CCn1ncc(CN(C)C(=O)c2nc(-c3ccc(OCCCN4CCCCC4)c(C)c3)nc3ccc(Cl)cc23)c1C [Compound 42]	180 nM	88 nM	380 nM	69 nM
CCn1ncc(CN(C)C(=O)c2nc(-c3ccc(OCCNC(C)=O)c(C)c3)nc3ccc(Cl)cc23)c1C [Compound 43]	460 nM	340 nM	380 nM	69 nM

Source: patent publication US20220144812A1, “QUINOLINE DERIVATIVES AND THEIR USE FOR THE TREATMENT OF CANCER” (Epizyme, Inc., priority 2019, published 2022)
